Legend:
[1] = PRO-001 (ProGem1) first-in-human phase I study, pharmacokinetics; type: in vivo; details: compared with gemcitabine
Excerpt: PRO-001 (aka ProGem1) was a first-in-human (FIH), phase I, open label, two stage study to investigate the safety, tolerability, clinical efficacy, pharmacokinetics (PK) and pharmacodynamics (PD) of NUC-1031 given in two parallel dosing schedules in subjects with advanced solid malignancies (EudraCT Number: 2011-005232-26). Subjects had the following tumour types at study entry: colorectal cancer (7 subjects), unknown primary (3), ovarian cancer (13), breast cancer (4), pancreatic cancer (9), cholangiocarcinoma (7), uterine or endometrial cancer (3), cervix cancer (2), lung cancer (6), mesothelioma (3) and thymus cancer (1). The study confirmed NUC-1031′s anti-tumour activity in patients with advanced progressive cancers, who have exhausted all standard therapeutic options, many of whom were resistant or refractory to prior nucleoside analogue therapy, including gemcitabine.

[2] = system: platinum sensitive recurrent ovarian cancer; details: cited from earlier work

Structure (SMILES) | levels of the potentially toxic metabolite dFdU released [1] | response rate [2] | median PFS ([2]; median follow-up of 17 months)
C[C@H](NP(=O)(OC[C@H]1O[C@@H](n2ccc(N)nc2=O)C(F)(F)[C@@H]1O)Oc1ccccc1)C(=O)OCc1ccccc1 (stereo partly drawn) [NUC-1031, 2′-Deoxy-2′,2′-difluoro-D-cytidine-5′-O-[phenyl (benzoxy-L-alaninyl)] phosphate] | lower levels |  | 
N.N.O=C([O-])C1(C(=O)[O-])CCC1.[Pt+2] [carboplatin] |  | 30.9% | 5.8 months

From patent US20200197430A1, “Combination Therapy” (NuCana plc, priority 2017, published 2020)
